Data taken from ChEMBL document CHEMBL1201862, “PubChem BioAssay data set” (2004).
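These data come from cells grown in 96-well plates and exposed to compound for 48 hours at five concentrations. The concentration for 50% growth inhibition is given as GI50.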 Active and inactive are the calls of the source. Rule as the data show it: active = GI50 up to about 1.1 µM and inactive = higher.

Assays:
Test in all cases: growth of human tumour cells (NCI), 48 h
[1] = system: ACHN
[2] = system: CCRF-CEM
[3] = system: KM12
[4] = system: MOLT-4
[5] = system: Malme-3M
[6] = system: NCI-H23
[7] = system: NCI-H460
[8] = system: OVCAR-5
[9] = system: OVCAR-8
[10] = system: RXF 393
[11] = system: SK-MEL-28
[12] = system: SK-MEL-2
[13] = system: SN12C
[14] = system: SNB-75
[15] = system: SW-620
[16] = system: TK-10
[17] = system: UACC-62
[18] = system: UO-31
[19] = system: HOP-62

Measured: GI50

Nc1c2ccccc2nc2c1ccc1ncccc12
inactive: [1] 5.38 µM | [2] 6.78 µM | [3] 15.1 µM | [4] 5.15 µM | [5] 12.4 µM | [6] 17.4 µM | [7] 5.83 µM | [8] 21.5 µM | [9] 21.2 µM | [10] 24.8 µM | [11] 33.7 µM | [12] 18.6 µM | [13] 21.1 µM | [14] 22.3 µM | [15] 11.7 µM | [16] 34.1 µM | [17] 14.5 µM | [18] 10.1 µM

CC(C)=CC(=O)c1[nH]c2ccccc2c1CC(=O)NCCc1cncn1C
inactive: [1] 66.4 µM | [2] 55.2 µM | [3] 55.7 µM | [4] > 100 µM | [5] > 100 µM | [6] 51.1 µM | [7] 52.6 µM | [8] > 100 µM | [9] 62.4 µM | [10] 29.6 µM | [11] > 100 µM | [12] > 100 µM | [13] 77.1 µM | [14] 52.4 µM | [15] 85.7 µM | [16] 58.7 µM | [17] 61.9 µM | [18] 21.4 µM

O=C(NCCNCCO)N/N=C/c1ccccc1
inactive: [1] > 100 µM | [2] > 100 µM | [3] > 100 µM | [4] > 100 µM | [5] > 100 µM | [6] > 100 µM | [7] > 100 µM | [9] > 100 µM | [10] > 100 µM | [11] > 100 µM | [12] > 100 µM | [13] > 100 µM | [14] > 100 µM | [15] > 100 µM | [16] > 100 µM | [17] > 100 µM

CS/C(=N\Nc1cnc2ccccc2n1)NS(=O)(=O)c1cc(C)c(Cl)cc1Cl
inactive: [1] > 100 µM | [2] > 100 µM | [19] > 100 µM | [3] > 100 µM | [4] > 100 µM | [5] > 100 µM | [6] > 100 µM | [7] > 100 µM | [8] > 100 µM | [9] > 100 µM | [10] > 100 µM | [11] > 100 µM | [13] > 100 µM | [14] 43.2 µM | [15] > 100 µM | [16] 82 µM | [17] 50.7 µM | [18] 33.9 µM
